In paper PMC9467556, “Identification of novel pyrrolopyrimidine and pyrrolopyridine derivatives as potent ENPP1 inhibitors” (Journal of Enzyme Inhibition and Medicinal Chemistry, 2022):
Where a name gives a salt, the structure may show the parent alone.

Experiments:
[1] = test system: ISRE-mediated reporter gene induction in THP-1 cells; test: ISRE/IRF luciferase reporter assay in THP-1 dual cells with cGAMP; conditions: co-treatment with cGAMP (1 μg/mL), 24 h
[2] = test system: IFN-β secretion in THP-1 cells; test: IFN-β cytokine release by ELISA; conditions: co-treatment with cGAMP, 8 h
Procedure: Extracellular secretion of IFN-β and IP-10 was measured by enzyme-linked immunosorbent assay (ELISA).
THP-1 cells were seeded in 96 well plate and treated with the compounds for 8 h incubation. 100 μL of cell culture supernatant was harvested and analysed using manufactural protocols.

[3] = liver microsomal stability; type: in vitro ADME, rat; conditions: % remaining during 30 min at 1 µM
CYP1A2 = target: T1, CYP1A2 (Homo sapiens, UniProt P05177); test: CYP inhibition profile; type: in vitro ADME; conditions: compound 10 μM
T1 sequence (P05177 1-516): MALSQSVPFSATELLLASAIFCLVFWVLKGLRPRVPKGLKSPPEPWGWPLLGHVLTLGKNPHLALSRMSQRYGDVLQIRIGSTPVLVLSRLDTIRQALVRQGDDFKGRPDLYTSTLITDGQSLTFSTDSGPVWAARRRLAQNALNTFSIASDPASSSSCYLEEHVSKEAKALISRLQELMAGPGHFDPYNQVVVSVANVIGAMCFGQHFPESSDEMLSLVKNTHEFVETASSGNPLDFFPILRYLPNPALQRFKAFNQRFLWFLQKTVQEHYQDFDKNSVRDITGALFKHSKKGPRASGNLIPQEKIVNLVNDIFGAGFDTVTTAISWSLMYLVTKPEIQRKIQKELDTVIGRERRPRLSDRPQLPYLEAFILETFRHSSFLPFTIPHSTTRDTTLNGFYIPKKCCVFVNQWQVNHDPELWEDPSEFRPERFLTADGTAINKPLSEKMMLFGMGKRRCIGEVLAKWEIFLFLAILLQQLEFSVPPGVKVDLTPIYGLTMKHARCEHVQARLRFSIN
Source text: Table 3. CYP inhibition profile. | column: % inhibition / CYP1A2

[4] = test system: 4T1 syngeneic mouse tumour model; test: 4T1 syngeneic mouse tumour model efficacy; type: in vivo; conditions: 40 mg/kg orally once daily, day 14, 4T1 tumour in BALB/c mice
Procedure: Thus, we evaluated the anti-cancer efficacy in the 4T1 syngeneic mouse tumour model to test the therapeutic potential of 18p. We postulated the marginal amount of cGAMP released by tumour could initiate the synergy effect of 18p, then administrated the compound by single-treatment[5]. After 4T1 tumour cells were implanted and grown in the flank of mice, 18p was orally administered (40 mg/kg) once daily and monitored the tumour volume and body weight of each mouse.
Figure 7. 4 × 10^5 of 4T1 cells were subcutaneously inoculated into right side flank of BLAB/c mice (n = 6). Mice were orally administrated by 18p (40 mg/kg) or vehicle by every day. (a) Tumour growth curve of 18p or vehicle. X-axis indicates days after treatment. (b) Tumour growth (%) on day 14. (c) Body weight of 18p or vehicle. X-axis indicates days after treatment. Statistics for tumour volume and tumour growth were analysed by 2way ANOVA and student t-test. *p < 0.05. **p < 0.01. Graphs are depicted by mean and SD.
The study for murine 4T1 […] was approved by the Institutional Animal Care and Use Committee (IACUC) of the Korea Institute of Science and Technology (KIST-2021–04-048). Female BALB/c mice were 8 weeks obtained from DBL (Korea). […] Tumour volume was calculated by following formula: Tumour volume (mm^3) = 0.5 × [length, (mm) × width, (mm)2].

[5] = liver microsomal stability; type: in vitro ADME, human; conditions: % remaining during 30 min at 1 µM

CC1(CNS(N)(=O)=O)CCN(c2ncnc3[nH]ccc23)CC1 [18p, N-((4-Methyl-1-(7H-pyrrolo[2,3-d]pyrimidin-4-yl)piperidin-4-yl)methyl)methanesulfamide hydrochloride]
cGAMP-induced ISRE activation (luciferase signal) [1]: clearly increased the cGAMP-induced ISRE activation in dose-dependent manner
IFN-β cytokine release [2]: secreted more cytokine than with cGAMP alone
Microsomal stability (%) Rat [3]: 96%
% inhibition CYP1A2 (CYP1A2): 12.0%
TGI [4]: 39%
Microsomal stability (%) Human [5]: 93%
